Test results: the kinase profiling compilation of Christmann-Franck et al. (2016)

Legend:
Assay in all cases: KINOMEscan competition binding
IRAK3 (human) = IRAK3 (human) (UniProt Q9Y616)
LTK (human) = LTK (human) (UniProt P29376)
FER (human) = FER (human) (UniProt P16591)
PRKD2 (human) = PRKD2 (human) (UniProt Q9BZL6)
CDKL1 (human) = CDKL1 (human) (UniProt Q00532)
PRKACA (human) = PRKACA (human) (UniProt P17612)
RPS6KA6 KD1 (human) = RPS6KA6 KD1 (human) (UniProt Q9UK32)
STK17B (human) = STK17B (human) (UniProt O94768)
TIE1 (human) = TIE1 (human) (UniProt P35590)
CAMK2A (human) = CAMK2A (human) (UniProt Q9UQM7)
STK24 (human) = STK24 (human) (UniProt Q9Y6E0)
MAP2K7 (human) = MAP2K7 (human) (UniProt O14733)
CSNK1E (human) = CSNK1E (human) (UniProt P49674)
YES1 (human) = YES1 (human) (UniProt P07947)
HCK (human) = HCK (human) (UniProt P08631)
NTRK2 (human) = NTRK2 (human) (UniProt Q16620)
MAP2K6 (human) = MAP2K6 (human) (UniProt P52564)
PIM3 (human) = PIM3 (human) (UniProt Q86V86)
MAPK8 (human) = MAPK8 (human) (UniProt P45983)
PAK6 (human) = PAK6 (human) (UniProt Q9NQU5)
STK32A (human) = STK32A (human) (UniProt Q8WU08)
TLK2 (human) = TLK2 (human) (UniProt Q86UE8)
MAPK13 (human) = MAPK13 (human) (UniProt O15264)
PIP5K1C (human) = PIP5K1C (human) (UniProt O60331)
[1] = system: PIK3CA (human), P42336 [M1043I]
LRRK2 (human) = LRRK2 (human) (UniProt Q5S007)
MAP3K2 (human) = MAP3K2 (human) (UniProt Q9Y2U5)
STK32B (human) = STK32B (human) (UniProt Q9NY57)
AAK1 (human) = AAK1 (human) (UniProt Q2M2I8)
TTK (human) = TTK (human) (UniProt P33981)
PLK1 (human) = PLK1 (human) (UniProt P53350)
PKN1 (human) = PKN1 (human) (UniProt Q16512)
RIPK2 (human) = RIPK2 (human) (UniProt O43353)
DYRK2 (human) = DYRK2 (human) (UniProt Q92630)
PDGFRB (human) = PDGFRB (human) (UniProt P09619)
PLK3 (human) = PLK3 (human) (UniProt Q9H4B4)
SGK3 (human) = SGK3 (human) (UniProt Q96BR1)
[2] = system: RET (human), P07949 [V804L]
PI4KB (human) = PI4KB (human) (UniProt Q9UBF8)
PIM2 (human) = PIM2 (human) (UniProt Q9P1W9)
ULK3 (human) = ULK3 (human) (UniProt Q6PHR2)
MAP3K3 (human) = MAP3K3 (human) (UniProt Q99759)
RPS6KA1 KD1 (human) = RPS6KA1 KD1 (human) (UniProt Q15418)

MAPK8 (human), sequence (P45983 whole entry, looked up): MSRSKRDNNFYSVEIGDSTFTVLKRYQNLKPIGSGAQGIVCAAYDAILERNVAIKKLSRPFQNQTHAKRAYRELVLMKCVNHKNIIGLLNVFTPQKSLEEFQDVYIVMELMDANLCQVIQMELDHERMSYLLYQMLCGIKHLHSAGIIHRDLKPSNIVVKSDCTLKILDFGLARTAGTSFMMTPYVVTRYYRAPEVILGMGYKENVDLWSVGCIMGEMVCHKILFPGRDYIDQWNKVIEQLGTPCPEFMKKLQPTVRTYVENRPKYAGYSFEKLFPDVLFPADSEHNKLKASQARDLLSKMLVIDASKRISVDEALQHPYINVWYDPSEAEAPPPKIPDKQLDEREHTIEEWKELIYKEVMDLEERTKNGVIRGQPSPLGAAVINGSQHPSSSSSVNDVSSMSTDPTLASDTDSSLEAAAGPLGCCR
TIE1 (human), sequence (P35590 whole entry, looked up): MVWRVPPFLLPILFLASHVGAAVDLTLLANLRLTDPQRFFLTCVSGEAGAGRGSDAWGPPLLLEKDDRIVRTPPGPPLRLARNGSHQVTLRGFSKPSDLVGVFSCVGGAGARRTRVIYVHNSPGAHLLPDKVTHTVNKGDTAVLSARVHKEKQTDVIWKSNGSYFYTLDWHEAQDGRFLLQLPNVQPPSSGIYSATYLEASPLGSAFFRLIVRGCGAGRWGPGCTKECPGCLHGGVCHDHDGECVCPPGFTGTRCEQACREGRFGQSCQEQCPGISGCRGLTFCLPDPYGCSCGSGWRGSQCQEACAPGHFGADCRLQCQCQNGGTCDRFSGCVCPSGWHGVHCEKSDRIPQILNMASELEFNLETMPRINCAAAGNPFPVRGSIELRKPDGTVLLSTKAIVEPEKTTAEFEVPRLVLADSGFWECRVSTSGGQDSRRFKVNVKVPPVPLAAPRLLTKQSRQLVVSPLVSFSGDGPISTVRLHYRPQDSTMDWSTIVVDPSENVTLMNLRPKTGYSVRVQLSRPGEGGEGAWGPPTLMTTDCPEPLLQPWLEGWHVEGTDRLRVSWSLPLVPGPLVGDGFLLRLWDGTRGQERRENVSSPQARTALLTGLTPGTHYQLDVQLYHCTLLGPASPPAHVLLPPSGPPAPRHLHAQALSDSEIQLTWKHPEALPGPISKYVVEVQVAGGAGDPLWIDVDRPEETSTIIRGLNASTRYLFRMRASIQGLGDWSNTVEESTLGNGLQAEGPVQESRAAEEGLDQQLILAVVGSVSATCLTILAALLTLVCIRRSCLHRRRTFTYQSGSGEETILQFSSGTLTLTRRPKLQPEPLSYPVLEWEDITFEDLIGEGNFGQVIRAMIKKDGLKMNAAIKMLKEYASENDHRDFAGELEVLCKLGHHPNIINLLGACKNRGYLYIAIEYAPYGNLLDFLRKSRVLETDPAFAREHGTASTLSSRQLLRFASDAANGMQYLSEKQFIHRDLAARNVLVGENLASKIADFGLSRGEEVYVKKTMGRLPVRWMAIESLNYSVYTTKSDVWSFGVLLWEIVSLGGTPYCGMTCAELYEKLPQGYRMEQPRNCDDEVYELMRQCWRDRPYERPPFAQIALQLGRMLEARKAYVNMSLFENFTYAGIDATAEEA
MAPK13 (human), sequence (O15264 whole entry, looked up): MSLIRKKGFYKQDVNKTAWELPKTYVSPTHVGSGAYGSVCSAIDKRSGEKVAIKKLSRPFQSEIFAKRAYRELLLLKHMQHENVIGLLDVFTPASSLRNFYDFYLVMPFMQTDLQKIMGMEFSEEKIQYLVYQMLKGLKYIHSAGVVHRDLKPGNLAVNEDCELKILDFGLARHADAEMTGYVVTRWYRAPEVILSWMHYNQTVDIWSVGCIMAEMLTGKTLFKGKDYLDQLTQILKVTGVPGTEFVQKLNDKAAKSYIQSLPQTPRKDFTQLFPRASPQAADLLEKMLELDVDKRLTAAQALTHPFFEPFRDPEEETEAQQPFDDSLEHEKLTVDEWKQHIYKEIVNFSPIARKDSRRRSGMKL
PIK3CA (human), P42336 [M1043I], sequence (P42336 whole entry M1043I, looked up): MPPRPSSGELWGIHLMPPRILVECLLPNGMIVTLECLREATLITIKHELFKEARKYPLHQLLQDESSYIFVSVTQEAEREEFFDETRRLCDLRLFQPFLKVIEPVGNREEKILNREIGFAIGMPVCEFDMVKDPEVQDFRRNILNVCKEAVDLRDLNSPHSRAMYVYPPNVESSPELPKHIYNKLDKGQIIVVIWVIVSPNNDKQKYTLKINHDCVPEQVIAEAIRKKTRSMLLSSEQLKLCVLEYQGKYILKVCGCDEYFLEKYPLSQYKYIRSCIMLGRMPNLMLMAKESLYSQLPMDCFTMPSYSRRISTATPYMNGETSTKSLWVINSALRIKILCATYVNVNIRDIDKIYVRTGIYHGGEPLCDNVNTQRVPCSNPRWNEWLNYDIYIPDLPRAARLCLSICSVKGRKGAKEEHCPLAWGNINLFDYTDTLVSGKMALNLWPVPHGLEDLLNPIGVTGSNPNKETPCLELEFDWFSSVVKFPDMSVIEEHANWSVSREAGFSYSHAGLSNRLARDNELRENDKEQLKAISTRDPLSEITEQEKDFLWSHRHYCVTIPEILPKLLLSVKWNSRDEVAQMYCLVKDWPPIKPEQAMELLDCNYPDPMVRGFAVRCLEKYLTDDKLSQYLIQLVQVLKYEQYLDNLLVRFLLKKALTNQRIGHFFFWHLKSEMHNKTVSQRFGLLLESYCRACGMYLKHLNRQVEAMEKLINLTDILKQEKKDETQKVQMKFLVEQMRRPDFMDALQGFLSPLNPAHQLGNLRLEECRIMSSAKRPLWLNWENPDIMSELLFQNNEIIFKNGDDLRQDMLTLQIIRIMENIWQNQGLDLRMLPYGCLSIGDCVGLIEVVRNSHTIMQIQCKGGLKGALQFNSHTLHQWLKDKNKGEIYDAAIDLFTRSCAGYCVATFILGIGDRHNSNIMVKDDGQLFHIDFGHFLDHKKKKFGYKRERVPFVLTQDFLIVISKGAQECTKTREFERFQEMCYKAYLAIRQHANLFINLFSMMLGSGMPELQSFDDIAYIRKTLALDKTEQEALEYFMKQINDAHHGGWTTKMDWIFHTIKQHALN
PIP5K1C (human), sequence (O60331 whole entry, looked up): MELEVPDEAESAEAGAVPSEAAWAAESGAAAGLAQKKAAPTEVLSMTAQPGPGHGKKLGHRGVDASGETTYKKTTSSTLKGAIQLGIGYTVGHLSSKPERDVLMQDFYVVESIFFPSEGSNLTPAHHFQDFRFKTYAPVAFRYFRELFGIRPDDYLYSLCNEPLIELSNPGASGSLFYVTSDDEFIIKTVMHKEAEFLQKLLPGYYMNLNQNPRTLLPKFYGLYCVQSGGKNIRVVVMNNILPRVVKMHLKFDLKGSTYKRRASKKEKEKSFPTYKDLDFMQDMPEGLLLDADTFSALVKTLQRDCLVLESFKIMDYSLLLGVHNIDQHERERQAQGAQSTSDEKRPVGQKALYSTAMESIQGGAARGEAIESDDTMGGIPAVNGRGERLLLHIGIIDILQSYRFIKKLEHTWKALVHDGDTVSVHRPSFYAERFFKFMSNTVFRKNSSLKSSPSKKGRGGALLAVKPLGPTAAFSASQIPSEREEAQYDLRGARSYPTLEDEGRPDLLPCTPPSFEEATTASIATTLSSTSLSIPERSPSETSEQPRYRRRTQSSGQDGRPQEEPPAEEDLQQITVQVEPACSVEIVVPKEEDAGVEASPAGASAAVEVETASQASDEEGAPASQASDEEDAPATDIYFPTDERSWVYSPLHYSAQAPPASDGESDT
RET (human), P07949 [V804L], sequence (P07949 whole entry V804L, looked up): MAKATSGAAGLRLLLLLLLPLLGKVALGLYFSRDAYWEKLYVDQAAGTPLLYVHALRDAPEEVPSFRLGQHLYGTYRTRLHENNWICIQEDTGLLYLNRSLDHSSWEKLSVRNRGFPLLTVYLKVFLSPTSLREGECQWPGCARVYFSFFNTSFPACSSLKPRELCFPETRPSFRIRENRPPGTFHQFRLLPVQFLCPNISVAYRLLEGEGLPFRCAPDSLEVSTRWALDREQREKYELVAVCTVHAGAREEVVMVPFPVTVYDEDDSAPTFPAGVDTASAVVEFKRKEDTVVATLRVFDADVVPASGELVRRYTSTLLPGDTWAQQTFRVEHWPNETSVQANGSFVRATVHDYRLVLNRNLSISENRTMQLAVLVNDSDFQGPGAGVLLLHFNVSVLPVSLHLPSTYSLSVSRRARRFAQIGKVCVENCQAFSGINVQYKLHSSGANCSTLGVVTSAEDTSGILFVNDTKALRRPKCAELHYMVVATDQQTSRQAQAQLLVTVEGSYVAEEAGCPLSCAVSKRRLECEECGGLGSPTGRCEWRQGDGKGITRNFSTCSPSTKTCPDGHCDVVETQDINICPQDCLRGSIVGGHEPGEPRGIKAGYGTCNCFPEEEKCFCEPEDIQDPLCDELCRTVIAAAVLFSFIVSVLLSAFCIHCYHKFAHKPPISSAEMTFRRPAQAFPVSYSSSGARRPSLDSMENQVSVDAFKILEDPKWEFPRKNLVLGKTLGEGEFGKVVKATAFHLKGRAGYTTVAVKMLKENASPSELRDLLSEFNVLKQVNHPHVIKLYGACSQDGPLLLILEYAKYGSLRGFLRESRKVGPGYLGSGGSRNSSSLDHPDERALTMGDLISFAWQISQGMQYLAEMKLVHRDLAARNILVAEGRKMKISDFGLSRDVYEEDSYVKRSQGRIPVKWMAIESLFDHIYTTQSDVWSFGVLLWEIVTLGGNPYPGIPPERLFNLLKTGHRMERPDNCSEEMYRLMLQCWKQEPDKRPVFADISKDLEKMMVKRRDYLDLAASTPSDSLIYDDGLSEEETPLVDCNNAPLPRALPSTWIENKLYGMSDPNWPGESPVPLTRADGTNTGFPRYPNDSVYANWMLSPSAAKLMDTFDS

Work on `Cc1cc(NC(=O)c2cccc(NC(=O)/C=C/CN(C)C)c2)ccc1Nc1nccc(-c2cccnc2)n1` yielded a kinase still bound, per cent of control (IRAK3 (human); compound 1.0 µM) of 85%, a kinase still bound, per cent of control (LTK (human); compound 1.0 µM) of 100% and a kinase still bound, per cent of control (FER (human); compound 1.0 µM) of 100%. It also gave a kinase still bound, per cent of control (PRKD2 (human); compound 1.0 µM) of 100%, a kinase still bound, per cent of control (CDKL1 (human); compound 1.0 µM) of 88% and a kinase still bound, per cent of control (PRKACA (human); compound 1.0 µM) of 100%. For the same compound, the kinase still bound, per cent of control (RPS6KA6 KD1 (human); compound 1.0 µM) was 100%, the kinase still bound, per cent of control (STK17B (human); compound 1.0 µM) was 72% and the kinase still bound, per cent of control (TIE1 (human); compound 1.0 µM) was 91%. For the same compound, the kinase still bound, per cent of control (CAMK2A (human); compound 1.0 µM) was 100%, the kinase still bound, per cent of control (STK24 (human); compound 1.0 µM) was 79% and the kinase still bound, per cent of control (MAP2K7 (human); compound 1.0 µM) was 59%. The kinase still bound, per cent of control (CSNK1E (human); compound 1.0 µM) was 70%, the kinase still bound, per cent of control (YES1 (human); compound 1.0 µM) was 86% and the kinase still bound, per cent of control (HCK (human); compound 1.0 µM) was 100%. For the same compound, the kinase still bound, per cent of control (NTRK2 (human); compound 1.0 µM) was 96%, the kinase still bound, per cent of control (MAP2K6 (human); compound 1.0 µM) was 95% and the kinase still bound, per cent of control (PIM3 (human); compound 1.0 µM) was 56%. For the same compound, the kinase still bound, per cent of control (MAPK8 (human); compound 1.0 µM) was 0%, the kinase still bound, per cent of control (PAK6 (human); compound 1.0 µM) was 100% and the kinase still bound, per cent of control (STK32A (human); compound 1.0 µM) was 78%. For the same compound, the kinase still bound, per cent of control (TLK2 (human); compound 1.0 µM) was 100%, the kinase still bound, per cent of control (MAPK13 (human); compound 1.0 µM) was 100% and the kinase still bound, per cent of control (PIP5K1C (human); compound 1.0 µM) was 93%. For the same compound, the kinase still bound, per cent of control ([1]; compound 1.0 µM) was 94%, the kinase still bound, per cent of control (LRRK2 (human); compound 1.0 µM) was 50% and the kinase still bound, per cent of control (MAP3K2 (human); compound 1.0 µM) was 100%. It also gave a kinase still bound, per cent of control (STK32B (human); compound 1.0 µM) of 90%, a kinase still bound, per cent of control (AAK1 (human); compound 1.0 µM) of 69% and a kinase still bound, per cent of control (TTK (human); compound 1.0 µM) of 46%. The kinase still bound, per cent of control (PLK1 (human); compound 1.0 µM) was 100%, the kinase still bound, per cent of control (PKN1 (human); compound 1.0 µM) was 94% and the kinase still bound, per cent of control (RIPK2 (human); compound 1.0 µM) was 99%. For the same compound, the kinase still bound, per cent of control (DYRK2 (human); compound 1.0 µM) was 20%, the kinase still bound, per cent of control (PDGFRB (human); compound 1.0 µM) was 4.7% and the kinase still bound, per cent of control (PLK3 (human); compound 1.0 µM) was 66%. The kinase still bound, per cent of control (SGK3 (human); compound 1.0 µM) was 48%, the kinase still bound, per cent of control ([2]; compound 1.0 µM) was 100% and the kinase still bound, per cent of control (PI4KB (human); compound 1.0 µM) was 82%. The kinase still bound, per cent of control (PIM2 (human); compound 1.0 µM) was 100%, the kinase still bound, per cent of control (ULK3 (human); compound 1.0 µM) was 40% and the kinase still bound, per cent of control (MAP3K3 (human); compound 1.0 µM) was 95%. It also gave a kinase still bound, per cent of control (RPS6KA1 KD1 (human); compound 1.0 µM) of 99%.

Compound `Cc1ccc(NC(=O)c2ccc(NC(=O)/C=C/CN(C)C)cc2)cc1Nc1nccc(-c2cccnc2)n1` has a kinase still bound, per cent of control (IRAK3 (human); compound 10.0 µM) of 28%, a kinase still bound, per cent of control (LTK (human); compound 10.0 µM) of 100% and a kinase still bound, per cent of control (FER (human); compound 10.0 µM) of 90%. For the same compound, the kinase still bound, per cent of control (PRKD2 (human); compound 10.0 µM) was 100%, the kinase still bound, per cent of control (CDKL1 (human); compound 10.0 µM) was 100% and the kinase still bound, per cent of control (PRKACA (human); compound 10.0 µM) was 100%. It also gave a kinase still bound, per cent of control (RPS6KA6 KD1 (human); compound 10.0 µM) of 50%, a kinase still bound, per cent of control (STK17B (human); compound 10.0 µM) of 64% and a kinase still bound, per cent of control (TIE1 (human); compound 10.0 µM) of 80%. It also gave a kinase still bound, per cent of control (CAMK2A (human); compound 10.0 µM) of 93%, a kinase still bound, per cent of control (STK24 (human); compound 10.0 µM) of 86% and a kinase still bound, per cent of control (MAP2K7 (human); compound 10.0 µM) of 100%. The kinase still bound, per cent of control (CSNK1E (human); compound 10.0 µM) was 72%, the kinase still bound, per cent of control (YES1 (human); compound 10.0 µM) was 100% and the kinase still bound, per cent of control (HCK (human); compound 10.0 µM) was 89%. The kinase still bound, per cent of control (NTRK2 (human); compound 10.0 µM) was 67%, the kinase still bound, per cent of control (MAP2K6 (human); compound 10.0 µM) was 100% and the kinase still bound, per cent of control (PIM3 (human); compound 10.0 µM) was 66%. The Kd (MAPK8 (human)) was 290 nM, the kinase still bound, per cent of control (MAPK8 (human); compound 10.0 µM) was 0% and the kinase still bound, per cent of control (PAK6 (human); compound 10.0 µM) was 45%. It also gave a kinase still bound, per cent of control (STK32A (human); compound 10.0 µM) of 50%, a kinase still bound, per cent of control (TLK2 (human); compound 10.0 µM) of 100% and a kinase still bound, per cent of control (MAPK13 (human); compound 10.0 µM) of 87%. It also gave a kinase still bound, per cent of control (PIP5K1C (human); compound 10.0 µM) of 90%, a kinase still bound, per cent of control ([1]; compound 10.0 µM) of 100% and a kinase still bound, per cent of control (LRRK2 (human); compound 10.0 µM) of 41%. The kinase still bound, per cent of control (MAP3K2 (human); compound 10.0 µM) was 84%, the kinase still bound, per cent of control (STK32B (human); compound 10.0 µM) was 100% and the kinase still bound, per cent of control (AAK1 (human); compound 10.0 µM) was 63%. It also gave a kinase still bound, per cent of control (TTK (human); compound 10.0 µM) of 83%, a kinase still bound, per cent of control (PLK1 (human); compound 10.0 µM) of 83% and a kinase still bound, per cent of control (PKN1 (human); compound 10.0 µM) of 100%. It also gave a kinase still bound, per cent of control (RIPK2 (human); compound 10.0 µM) of 67%, a kinase still bound, per cent of control (DYRK2 (human); compound 10.0 µM) of 36% and a kinase still bound, per cent of control (PDGFRB (human); compound 10.0 µM) of 0%. For the same compound, the kinase still bound, per cent of control (PLK3 (human); compound 10.0 µM) was 46%, the kinase still bound, per cent of control (SGK3 (human); compound 10.0 µM) was 99% and the kinase still bound, per cent of control ([2]; compound 10.0 µM) was 85%. The kinase still bound, per cent of control (PI4KB (human); compound 10.0 µM) was 40%, the kinase still bound, per cent of control (PIM2 (human); compound 10.0 µM) was 100% and the kinase still bound, per cent of control (ULK3 (human); compound 10.0 µM) was 100%. For the same compound, the kinase still bound, per cent of control (MAP3K3 (human); compound 10.0 µM) was 81% and the kinase still bound, per cent of control (RPS6KA1 KD1 (human); compound 10.0 µM) was 63%.
